Experimental data published in patent US20250230153A1, “2,3-DIHYDROBENZO[B][1,4]DIOXIN-6-YL CONTAINING COMPOUNDS USEFUL AS IMMUNOMODULATORS” (BRISTOL-MYERS SQUIBB COMPANY, priority 2021, published 2025).

Target: PD-1/PD-L1 (Homo sapiens (Human), UniProt Q9NZQ7)
Assay: PD-1/PD-L1 Homogenous Time-Resolved Fluorescence (HTRF) binding assay
Conditions: PD-1-Ig (20 nM final)/PD-L1-His (10 nM final) binding assay
Description: The ability of the compounds of the invention to bind to PD-L1 was investigated using a PD-1/PD-L1 Homogenous Time-Resolved Fluorescence (HTRF) binding assay.
The interaction of PD-1 and PD-L1 can be assessed using soluble, purified preparations of the extracellular domains of the two proteins. The PD-1 and PD-L1 protein extracellular domains were expressed as fusion proteins with detection tags, for PD-1, the tag was the Fc portion of Immunoglobulin (PD-1-Ig) and for PD-L1 it was the 6 histidine motif (PD-L1-His). All binding studies were performed in an HTRF assay buffer consisting of dPBS supplemented with 0.1% […] bovine serum albumin and 0.05% (v/v) Tween-20. For the h/PD-L1-His binding assay, inhibitors were pre-incubated with PD-L1-His (10 nM final) for 15m in 4 μl of assay buffer, followed by addition of PD-1-Ig (20 nM final) in 1 μl of assay buffer and further incubation for 15 m. HTRF detection was achieved using europium crypate-labeled anti-Ig (1 nM final) and allophycocyanin (APC) labeled anti-His (20 nM final). Antibodies were diluted in HTRF detection buffer and 5 μl was dispensed on top of the binding reaction. The reaction mixture was allowed to equilibrate for 30 minutes and the resulting signal (665 nm/620 nm ratio) was obtained using an EnVision fluorometer. Additional binding assays were established between the human proteins PD-1-Ig/PD-L2-His (20 & 5 nM, respectively) and CD80-His/PD-L1-Ig (100 & 10 nM, respectively).
Recombinant Proteins: Human PD-1 (25-167) with a C-terminal human Fc domain of immunoglobulin G (Ig) epitope tag [hPD-1 (25-167)-3S-IG] and human PD-L1 (18-239) with a C-terminal His epitope tag [hPD-L1(18-239)-TVMV-His] were expressed in HEK293T cells and purified sequentially by ProteinA affinity chromatography and size exclusion chromatography. Human PD-L2-His and CD80-His was obtained through commercial sources.
Homogenous Time-Resolved Fluorescence (HTRF) Assays of Binding of Soluble PD-1 to Soluble PD-L1. Soluble PD-1 and soluble PD-L1 refers to proteins with carboxyl-end truncations that remove the transmembrane-spanning regions and are fused to heterologous sequences, specifically the Fc portion of the human immunoglobuling G sequence (Ig) or the hexahistidine epitope tag (His). All binding studies were performed in an HTRF assay buffer consisting of dPBS supplemented with 0.1% (w/v) bovine serum albumin and 0.05% (v/v) Tween-20. For the PD-1-Ig/PD-L1-His binding assay, inhibitors were pre-incubated with PD-L1-His (10 nM final) for 15m in 4 μl of assay buffer, followed by addition of PD-1-Ig (20 nM final) in 1 μl of assay buffer and further incubation for 15 m. PD-L1 fusion proteins from either human, cynomologous macaques, mouse, or other species were used. HTRF detection was achieved using europium crypate-labeled anti-Ig monoclonal antibody (1 nM final) and allophycocyanin (APC) labeled anti-His monoclonal antibody (20 nM final). Antibodies were diluted in HTRF detection buffer and 5 μl was dispensed on top of binding reaction. The reaction was allowed to equilibrate for 30 minutes and signal (665 nm/620 nm ratio) was obtained using an EnVision fluorometer. Additional binding assays were established between PD-1-Ig/PD-L2-His (20 and 5 nM, respectively), CD80-His/PD-L1-Ig (100 and 10 nM, respectively) and CD80-His/CTLA4-Ig (10 and 5 nM, respectively).
Recombinant Proteins. Carboxyl-truncated human PD-1 (amino acids 25-167) with a C-terminal human Ig epitope tag [hPD-1 (25-167)-3S-IG] and human PD-L1 (amino acids 18-239) with a C-terminal His epitope tag [hPD-L1(19-239)-tobacco vein mottling virus protease cleavage site (TVMV)-His] were expressed in HEK293T cells and purified sequentially by recombinant Protein A affinity chromatography and size exclusion chromatography. Human PD-L2-His (Sino Biologicals), CD80-His (Sino Biologicals), CTLA4-Ig (RnD Systems) were all obtained through commercial sources.

PD-1/PD-L1, sequence (Q9NZQ7 18-239): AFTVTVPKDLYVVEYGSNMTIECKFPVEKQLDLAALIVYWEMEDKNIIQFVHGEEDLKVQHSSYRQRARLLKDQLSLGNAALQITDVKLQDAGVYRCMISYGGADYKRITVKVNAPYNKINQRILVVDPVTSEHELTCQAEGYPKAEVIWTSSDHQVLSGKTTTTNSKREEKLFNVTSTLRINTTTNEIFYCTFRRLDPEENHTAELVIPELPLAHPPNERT

| IC50 | Compound |
| --- | --- |
| 5.7 nM | Cc1c(COc2cc(OCCN3CCOCC3)c(CN3CCCC[C@H]3C(=O)O)cc2Cl)cccc1-c1ccc2c(c1)OCCO2 [Example 1038, (S)-1-(5-Chloro-4-((3-(2,3-dihydrobenzo[b][1,4]dioxin-6-yl)-2-methylbenzyl)oxy)-2-(2-morpholinoethoxy)benzyl)piperidine-2-carboxylic acid] |
| 164 nM | Cc1c(COc2cc(OCC3CCCCC3)c(CN3CCCC[C@H]3C(=O)O)cc2Cl)cccc1-c1ccc2c(c1)OCCO2 [Example 1040, (S)-1-(5-Chloro-2-(cyclohexylmethoxy)-4-((3-(2,3-dihydrobenzo[b][1,4]dioxin-6-yl)-2-methylbenzyl)oxy)benzyl)piperidine-2-carboxylic acid] |
| 50.5 nM | Cc1c(COc2cc(OCC3CCCCC3)c(CNC(C)(CO)CO)cc2Cl)cccc1-c1ccc2c(c1)OCCO2 [Example 1041, 2-((5-Chloro-2-(cyclohexylmethoxy)-4-((3-(2,3-dihydrobenzo[b][1,4]dioxin-6-yl)-2-methylbenzyl)oxy)benzyl)amino)-2-methylpropane-1,3-diol] |
| 0.6 nM | Cc1c(COc2cc(OCCN3CCCCC3)c(CN3CCCC[C@H]3C(=O)O)cc2Cl)cccc1-c1ccc2c(c1)OCCO2 [Example 1042, (S)-1-(5-Chloro-4-((3-(2,3-dihydrobenzo[b][1,4]dioxin-6-yl)-2-methylbenzyl)oxy)-2-(2-(piperidin-1-yl)ethoxy)benzyl)piperidine-2-carboxylic acid] |
| 4.4 nM | Cc1c(COc2cc(OCC3CCOCC3)c(CN[C@](C)(CO)C(=O)O)cc2Cl)cccc1-c1ccc2c(c1)OCCO2 [Example 1045, (R)-2-((5-Chloro-4-((3-(2,3-dihydrobenzo[b][1,4]dioxin-6-yl)-2-methylbenzyl)oxy)-2-((tetrahydro-2H-pyran-4-yl)methoxy)benzyl)amino)-3-hydroxy-2-methylpropanoic acid] |
| 7 nM | Cc1c(COc2cc(OCC3CCOCC3)c(CN3CCCC[C@H]3C(=O)O)cc2Cl)cccc1-c1ccc2c(c1)OCCO2 [Example 1046, (S)-1-(5-Chloro-4-((3-(2,3-dihydrobenzo[b][1,4]dioxin-6-yl)-2-methylbenzyl)oxy)-2-((tetrahydro-2H-pyran-4-yl)methoxy)benzyl)piperidine-2-carboxylic acid] |
| 5.4 nM | Cc1c(COc2cc(OCC3CCOCC3)c(CNC(C)(CO)CO)cc2Cl)cccc1-c1ccc2c(c1)OCCO2 [Example 1047, 2-((5-Chloro-4-((3-(2,3-dihydrobenzo[b][1,4]dioxin-6-yl)-2-methylbenzyl)oxy)-2-((tetrahydro-2H-pyran-4-yl)methoxy)benzyl)amino)-2-methylpropane-1,3-diol] |
| 11.1 nM | Cc1c(COc2cc(OCC3CCC3)c(CN[C@](C)(CO)C(=O)O)cc2Cl)cccc1-c1ccc2c(c1)OCCO2 [Example 1048, (R)-2-((5-chloro-2-(cyclobutylmethoxy)-4-((3-(2,3-dihydrobenzo[b][1,4]dioxin-6-yl)-2-methylbenzyl)oxy)benzyl)amino)-3-hydroxy-2-methylpropanoic acid] |
| 14.2 nM | Cc1c(COc2cc(OCC3CCC3)c(CNC(C)(CO)CO)cc2Cl)cccc1-c1ccc2c(c1)OCCO2 [Example 1049, 2-((5-Chloro-2-(cyclobutylmethoxy)-4-((3-(2,3-dihydrobenzo[b][1,4]dioxin-6-yl)-2-methylbenzyl)oxy)benzyl)amino)-2-methylpropane-1,3-diol] |
| 59.8 nM | Cc1c(COc2cc(OCC3CCC3)c(CN3CCCC[C@H]3C(=O)O)cc2Cl)cccc1-c1ccc2c(c1)OCCO2 [Example 1050, (S)-1-(5-Chloro-2-(cyclobutylmethoxy)-4-((3-(2,3-dihydrobenzo[b][1,4]dioxin-6-yl)-2-methylbenzyl)oxy)benzyl)piperidine-2-carboxylic acid] |
| 1 nM | COC(=O)C1(O)CCN(CCOc2cc(OCc3cccc(-c4ccc5c(c4)OCCO5)c3C)c(Cl)cc2CN2CCCC[C@H]2C(=O)O)CC1 [Example 1051, (S)-1-(5-Chloro-4-((3-(2,3-dihydrobenzo[b][1,4]dioxin-6-yl)-2-methylbenzyl)oxy)-2-(2-(4-hydroxy-4-(methoxycarbonyl)piperidin-1-yl)ethoxy)benzyl)piperidine-2-carboxylic acid] |

Continued, compound first:

| Compound | IC50 |
| --- | --- |
| Cc1c(COc2cc(OC[C@@H](C)CO)c(CN[C@](C)(CO)C(=O)O)cc2Cl)cccc1-c1ccc2c(c1)OCCO2 [Example 1035, (R)-2-((5-chloro-4-((3-(2,3-dihydrobenzo[b][1,4]dioxin-6-yl)-2-methylbenzyl)oxy)-2-((S)-3-hydroxy-2-methylpropoxy)benzyl)amino)-3-hydroxy-2-methylpropanoic acid] | 3.4 nM |
| Cc1c(COc2cc(OC[C@@H](C)CO)c(CNC(C)(CO)CO)cc2Cl)cccc1-c1ccc2c(c1)OCCO2 [Example 1036, (S)-2-((5-Chloro-4-((3-(2,3-dihydrobenzo[b][1,4]dioxin-6-yl)-2-methylbenzyl)oxy)-2-(3-hydroxy-2-methylpropoxy)benzyl)amino)-2-methylpropane-1,3-diol] | 4.6 nM |
| Cc1c(COc2cc(OCCN3CCOCC3)c(CN[C@](C)(CO)C(=O)O)cc2Cl)cccc1-c1ccc2c(c1)OCCO2 [Example 1037, (R)-2-((5-Chloro-4-((3-(2,3-dihydrobenzo[b][1,4]dioxin-6-yl)-2-methylbenzyl)oxy)-2-(2-morpholinoethoxy)benzyl)amino)-3-hydroxy-2-methylpropanoic acid] | 1.8 nM |
| Cc1c(COc2cc(OCCN3CCOCC3)c(CNC(C)(CO)CO)cc2Cl)cccc1-c1ccc2c(c1)OCCO2 [Example 1039, 2-((5-Chloro-4-((3-(2,3-dihydrobenzo[b][1,4]dioxin-6-yl)-2-methylbenzyl)oxy)-2-(2-morpholinoethoxy)benzyl)amino)-2-methylpropane-1,3-diol] | 2.3 nM |
| Cc1c(COc2cc(OCCN3CCCCC3)c(CN[C@](C)(CO)C(=O)O)cc2Cl)cccc1-c1ccc2c(c1)OCCO2 [Example 1043, (R)-2-((5-Chloro-4-((3-(2,3-dihydrobenzo[b][1,4]dioxin-6-yl)-2-methylbenzyl)oxy)-2-(2-(piperidin-1-yl)ethoxy)benzyl)amino)-3-hydroxy-2-methylpropanoic acid] | 0.4 nM |
| Cc1c(COc2cc(OCCN3CCCCC3)c(CNC(C)(CO)CO)cc2Cl)cccc1-c1ccc2c(c1)OCCO2 [Example 1044, 2-((5-Chloro-4-((3-(2,3-dihydrobenzo[b][1,4]dioxin-6-yl)-2-methylbenzyl)oxy)-2-(2-(piperidin-1-yl)ethoxy)benzyl)amino)-2-methylpropane-1,3-diol] | 2.1 nM |
| COC(=O)C1(O)CCN(CCOc2cc(OCc3cccc(-c4ccc5c(c4)OCCO5)c3C)c(Cl)cc2CN[C@](C)(CO)C(=O)O)CC1 [Example 1052, (R)-2-((5-Chloro-4-((3-(2,3-dihydrobenzo[b][1,4]dioxin-6-yl)-2-methylbenzyl)oxy)-2-(2-(4-hydroxy-4-(methoxycarbonyl)piperidin-1-yl)ethoxy)benzyl)amino)-3-hydroxy-2-methylpropanoic acid] | 1.3 nM |
| COC(=O)C1(O)CCN(CCOc2cc(OCc3cccc(-c4ccc5c(c4)OCCO5)c3C)c(Cl)cc2CNC(C)(CO)CO)CC1 [Example 1053, Methyl 1-(2-(4-chloro-5-((3-(2,3-dihydrobenzo[b][1,4]dioxin-6-yl)-2-methylbenzyl)oxy)-2-(((1,3-dihydroxy-2-methylpropan-2-yl)amino)methyl)phenoxy)ethyl)-4-hydroxypiperidine-4-carboxylate] | 1.4 nM |
